Counter-ions that a name gives are not always drawn. Like-named read-outs stand apart in the source and are kept apart here.
How the values were obtained:
[1] = system: fibrin-induced microglia activation; experiment: Image-based assay of fibrin-induced microglia activation (HTS and dose response); format: cell-based, rat; details: for inhibition at 10 µM: Rattus norvegicus, Microglia, read-out: Fibrin % inhibition
[2] = system: primary rat microglia;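 on Fibrin % cell toxicity: share of dead cells sized under 150 µm2 at 10 µM in fibrin-stimulated microglia HTS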
[3] = system: primary rat microglia; remark: listed apart in the source;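 on Fibrin % cell toxicity: share of dead cells sized under 150 µm2 at 10 µM in fibrin-stimulated microglia HTS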
[4] = system: LPS-induced microglia activation; experiment: Image-based assay of LPS-induced microglia activation (HTS and dose response); format: cell-based, rat; details: for inhibition at 10 µM: Rattus norvegicus, Microglia, read-out: LPS % inhibition
[5] = system: fibrin- and LPS-induced microglia activation; experiment: cells; format: cell-based, rat
[6] = primary HTS, 10 μM, fibrin-stimulated primary microglia
[7] = primary HTS, 10 μM, LPS-stimulated primary microglia

SMILES	inhibition at 10 µM [1, 6] [%]	LPS % cell toxicity ([2]; rat) [%]	Fibrin % cell toxicity ([3]; rat) [%]	inhibition at 10 µM [4, 7] [%]	Quadrant (FIG. 5b) ([5]; primary HTS, 10 μM)	inhibition at 10 µM [1] [%]	inhibition at 10 µM [4] [%]	Quadrant (FIG. 5b) [5]	further results
CC(C)COCC(CN(Cc1ccccc1)c1ccccc1)N1CCCC1 (stereo not shown) [Bepridil]	1	0	1	15	Q4	–	–	–	–
COc1ccc2cc3[n+](cc2c1OC)CCc1cc2c(cc1-3)OCO2 [Berberine]	-62	0	0	4	Q4	–	–	–	–
Oc1ccc2ccccc2c1 [Beta-naphthol]	–	0	0	–	–	-17	15	Q4	–
CCC(=O)OCC(=O)[C@@]1(OC(=O)CC)[C@@H](C)C[C@H]2[C@@H]3CCC4=CC(=O)C=C[C@]4(C)[C@@]3(F)[C@@H](O)C[C@@]21C [Betamethasone 17,21-dipropionate]	–	–	–	–	Q4	–	–	–	Fibrin % inhibition [1, 6]: 21%; LPS % cell toxicity [2]: 0%; Fibrin % cell toxicity [3]: 1%; LPS % inhibition [4, 7]: 29%
CC(C[N+](C)(C)C)OC(N)=O (stereo not shown) [Bethanechol]	14	0	1	15	Q4	–	–	–	–
C=C(c1ccc(C(=O)O)cc1)c1cc2c(cc1C)C(C)(C)CCC2(C)C [Bexarotene]	-3	1	1	10	Q4	–	–	–	–
c1ccc(-c2ccc(C(c3ccccc3)n3ccnc3)cc2)cc1 (stereo not shown) [Bifonazole]	–	0	1	–	–	-3	14	Q4	–
O=C(O)CCCC[C@@H]1SC[C@@H]2NC(=O)N[C@@H]21 [Biotin]	–	0	1	–	–	24	12	Q4	–
CC(=O)Oc1ccc(C(c2ccc(OC(C)=O)cc2)c2ccccn2)cc1 [Bisacodyl]	10	0	0	8	Q4	–	–	–	–
Oc1c(Cl)cc(Cl)cc1Sc1cc(Cl)cc(Cl)c1O [Bithionol]	11	0	1	14	Q4	–	–	–	–
CC(=O)OC1CC2CCC1(C)C2(C)C (stereo not shown) [Bornyl Acetate]	-38	0	0	2	Q4	–	–	–	–
CC(C)C[C@H](NC(=O)[C@H](Cc1ccccc1)NC(=O)c1cnccn1)B(O)O [Bortezomib]	–	56	86	–	–	–	–	–	inhibition at 10 µM ([1]; primary microglia HTS, fibrin stimulation, increased cell size (>800 μm^2) as marker of activation): 106%; inhibition at 10 µM ([4]; 48 h, primary microglia HTS, LPS stimulation, increased cell size (>800 μm^2) as marker of activation): 106%; Quadrant (FIG. 5b) ([5]; quadrant by fibrin and LPS inhibition in HTS of 1907 compounds): Q2
CC[N+](C)(C)Cc1ccccc1Br [Bretylium]	–	0	0	–	–	-26	-9	Q4	–
Brc1c(NC2=NCCN2)ccc2nccnc12 [Brimonidine]	–	0	1	–	–	-36	-9	Q4	–
CCOc1ccc(NC(=O)CC(C)O)cc1 (stereo not shown) [Bucetin]	-25	0	0	12	Q4	–	–	–	–
O=C1CC2(CCCC2)CC(=O)N1CCCCN1CCN(c2ncccn2)CC1 [Buspirone]	–	0	0	–	–	-13	8	Q4	–
CS(=O)(=O)OCCCCOS(C)(=O)=O [Busulfan]	1	0	0	2	Q4	–	–	–	–
O=C(O)CCC(=O)OC[C@@H](NC(=O)C(Cl)Cl)[C@H](O)c1ccc([N+](=O)[O-])cc1 [CHLOR[…]]	–	1	2	–	–	24	14	Q4	–
CCCCCOC(=O)Nc1nc(=O)n([C@@H]2O[C@H](C)[C@@H](O)[C@H]2O)cc1F [Capecitabine]	43	1	1	25	Q4	–	–	–	–

SMILES	inhibition at 10 µM [1, 6] [%]	LPS % cell toxicity ([2]; rat) [%]	Fibrin % cell toxicity ([3]; rat) [%]	inhibition at 10 µM [4, 7] [%]	Quadrant (FIG. 5b) ([5]; primary HTS, 10 μM)	inhibition at 10 µM [1] [%]	inhibition at 10 µM [4] [%]	Quadrant (FIG. 5b) [5]	further results
CCN(CC)CCOCCOC(=O)C1(c2ccccc2)CCCC1 [Carbetapentane Citrate]	-13	0	1	7	Q4	–	–	–	–
CC(C(=O)O)c1ccc2c(c1)[nH]c1ccc(Cl)cc12 (stereo not shown) [Carprofen]	-2	0	0	15	Q4	–	–	–	–
CC=CC1=C(C(=O)O)N2C(=O)[C@@H](NC(=O)[C@H](N)c3ccc(O)cc3)[C@H]2SC1 [Cefprozil]	–	–	–	–	Q4	–	–	–	Fibrin % inhibition [1, 6]: 3%; LPS % cell toxicity [2]: 0%; Fibrin % cell toxicity [3]: 0%; LPS % inhibition [4, 7]: 14%
CO/N=C(\C(=O)N[C@@H]1C(=O)N2C(C(=O)O)=C(CSc3nc(=O)c(=O)[nH]n3C)CS[C@H]12)c1csc(N)n1 [Ceftriaxone]	–	0	1	–	–	-16	12	Q4	–
CO/N=C(\C(=O)N[C@@H]1C(=O)N2C(C(=O)O)=C(COC(N)=O)CS[C@H]12)c1ccco1 [Cefuroxime Sodium]	–	1	1	–	Q4	–	–	–	Fibrin % inhibition [1, 6]: −12%; LPS % inhibition [4, 7]: 19%
CO/N=C(\C(=O)N[C@@H]1C(=O)N2C(C(=O)O)=C(COC(N)=O)CS[C@H]12)c1ccco1 [Cefuroxime]	–	0	1	–	Q4	–	–	–	Fibrin % inhibition [1, 6]: 16%; LPS % inhibition [4, 7]: 2%
Cc1ccc(-c2cc(C(F)(F)F)nn2-c2ccc(S(N)(=O)=O)cc2)cc1 [Celecoxib]	-31	0	0	21	Q4	–	–	–	–
OC[C@@H](O)[C@H]1O[C@@H]2O[C@H](C(Cl)(Cl)Cl)O[C@@H]2[C@H]1O [Chloralose]	–	0	1	–	–	-14	9	Q4	–
O=C(O)CCCc1ccc(N(CCCl)CCCl)cc1 [Chlorambucil]	8	0	1	-7	Q4	–	–	–	–
CCN(CC)CCCC(C)Nc1ccnc2cc(Cl)ccc12 (stereo not shown) [Chloroquine]	–	0	0	–	–	2	7	Q4	–
Oc1c(Cl)cc(Cl)c2cccnc12 [Chloroxine]	-17	0	1	8	Q4	–	–	–	–
CN(C)CCC(c1ccc(Cl)cc1)c1ccccn1 (stereo not shown) [Chlorphenamine]	0	0	1	13	–	–	–	Q4	–
CCOP(=S)(OCC)Oc1nc(Cl)c(Cl)cc1Cl [Chlorpyrifos]	-7	0	1	1	Q4	–	–	–	–
C[C@H](CCC(=O)O)[C@H]1CC[C@H]2[C@@H]3[C@H](O)C[C@@H]4C[C@H](O)CC[C@]4(C)[C@H]3C[C@H](O)[C@]12C [Cholic Acid]	–	0	0	–	–	-31	-5	Q4	–
C[N+](C)(C)CCO [Choline]	–	0	0	–	–	0	12	Q4	–
CC1(C)C[C@@H]1C(=O)N/C(=C\CCCCSC[C@H](N)C(=O)O)C(=O)O [Cilastatin]	–	0	1	–	–	-6	2	Q4	–
O=C1CCc2cc(OCCCCc3nnnn3C3CCCCC3)ccc2N1 [Cilostazol]	5	1	1	17	Q4	–	–	–	–
CN/C(=N/CCSCc1nc[nH]c1C)NC#N [Cimetidine]	–	1	0	–	–	-1	22	Q4	–
CC(C)(Oc1ccc(C2CC2(Cl)Cl)cc1)C(=O)O (stereo not shown) [Ciprofibrate]	-16	1	0	16	Q4	–	–	–	–

— patent publication US20210330611A1, “THERAPY FOR NEUROLOGICAL DISEASES/DISORDERS” (priority 2020, published 2021)
